{
  "source": "patent US4464385A",
  "about": "“Treatment of diabetic complications with hydantoins” (Alcon Laboratories, Inc., priority 1982, dated 1984)",
  "test_system": "cataracts in rats",
  "test": "Prevention or retardation of cataracts in galactose-fed rats",
  "type": "in vivo, rat",
  "details": "0.0025% in diet",
  "method": "The compounds to be tested were:\nTest compound/diet mixtures were formulated as follows: […]\nSimilarly, the 0.01% level was designed to provide a drug concentration of 20 mg per kilogram per day.\nAll animals were fed the Purina Laboratory Chow and water, ad libitum for a two day acclimatization period. The indicated test compound/diet mixture then was introduced to all animals on Study Day 1 and the animals were maintained on this diet throughout thirty days of the study.\nSufficient amounts of test compound/diet mixture were maintained in the food hoppers to allow the animals to eat ad libitum. All aliquots of test compound/diet mixture added to the food hoopers were weighed and the weights, as well as day of addition, recorded.\nTwelve animals were assigned to each treatment with each compound at the indicated percentage by total weight of feed. All eyes were examined with a handheld ophthalmoscope and/or penlight.",
  "data": [
    {"smiles": "O=C1NC(=O)C2(CCOc3ccc(F)cc32)N1", "note": "(single isomer, unassigned) [SARGES**, dspiro (6fluoro-chroman-4,4imidazolidine)-2',5dione, reference compound]", "values": [
      {"measurement": "time of suppression, time to vacuole formation", "result": 20.8, "unit": "days"},
      {"measurement": "suppression of the formation of nuclear cataracts", "setting": "30 days", "result": 100, "unit": "%"}
    ]}
  ]
}
